Series [1] deals with collagen II induced arthritis in female Wistar rats. As to the kind of experiment: Collagen II induced arthritis (CIA). Type of series: in vivo. How it is done: Collagen II solution (collagen, 2 mg/ml in 0.05M acetic acid, Chondrex 20022, Redmond, Wash., USA) was emulsified with an equal volume of incomplete Freund's adjuvant (IFA, Chondrex 7002, Redmond, Wash., USA) at 4° C. using a high-speed homogenizer. In the experiment of CIA, DMY was encapsulated with HP-CD (1:8.48) and then dissolved in the normal saline with drug concentrations of 50 and 100 mg/kg body weight. Rats were intradermally injected at the base of the tail with 100 μl collagen/incomplete Freund's adjuvant (IFA) emulsion containing […] of collagen II by the use of a glass syringe equipped with a locking hub and a 27-G needle. On day 7 after the primary immunization, all the rats were given a booster injection of 100 μg of collagen II in IFA. On the day after the onset of arthritis (day 13), the CIA rats were exposed to a daily intraperitoneal administration of DMY (50 and 100 mg/kg) until day 30 of the study. DEX (0.1 mg/kg, one per day), MTX (3.75 mg/kg, twice per week), and indomethacin (1 mg/kg, one per day) were used as positive reference drugs. The rats were inspected daily from the onset of arthritis characterized by edema and/or erythema in the paws. The incidence and severity of arthritis were evaluated using an arthritic scoring system, and bi-hind paw volumes and body weight were measured every 2 days started on the day when the arthritic signs were firstly visible (day 13). In the arthritic scoring system, lesions (i.e., the clinical arthritic signs) of the four paws of each rat were graded from 0 to 4 according to the extent of both edema and erythema of the periarticular tissues. As such, 16 was the potential maximum of the combined arthritic scores per animal. The hind paw volumes were measured using a plethysmometer chamber (7140 UGO. Basile, Comerio, Italy) and expressed as the mean volume change of both hind paws of the rats. Body weight of the rats was monitored with a 0.1 g precision balance (Sartorius AG, Goettingen, Germany). On day 30, all rats were sacrificed with liver, spleen and thymus being collected and weighted. The organ index for a specific organ is equal to the ratio of the weight of that organ to a body weight of 100 g.

For series [2], the system named is IKK-α/β phosphorylation in human T lymphocytes. As to the kind of experiment: Measurement of the phosphorylation of IKK α/β (Western blot). It counts as cell-based. The following applies: mediated by PMA/ionomycin or anti-OKT-3/anti-CD28; FIG. 4B. How it is done:
Human T lymphocytes (4×10^6/well) were pretreated with DMY in different concentrations for 60 minutes and then the cells were stimulated with PMA/ionomycin for 30 minutes.
The whole-cell lysates were prepared by lysing the harvested T cells with lysis buffer (50 mM Tris-HCl, pH 7.5, 250 mM NaCl, 5 mM EDTA, 1 mM DTT, 1% Triton, 50 mM NaF, 1 mM sodium orthovanadate, 0.5 mM PMSF and 1× protease inhibitor mix, Roche). Protein concentrations were determined by using Bio-Rad Protein assay (Bio-Rad Laboratories, Inc. Hercules, Calif.). Equal amount of nuclear proteins or whole-cell lysates were analyzed by 10% SDS-polyacrylamide gel electrophoresis (SDS-PAGE). After electrophoresis, the proteins were electro-transferred to the nitrocellulose membranes. After proteins were transferred, the membranes were blocked by 5% dried milk for 60 minutes and then washed three times for 5 minutes in washing interval with TBS-T (Tween-20, 0.05%). The membranes were then incubated with phosphorylation-IKK-α/β primary antibodies overnight at 4° C. and then washed three times with TBS-T. Afterwards, the membranes were incubated again with HRP-conjugated secondary antibodies for 60 minutes. The blots were developed using the enhanced chemiluminescence (ECL, Amersham Bioscience).

Series [3] has as its system isolated human T lymphocytes. As to the kind of experiment: T cells proliferation assay (BrdU ELISA). The following applies: stimulated with anti-OKT 3/anti-CD28 or PMA/ionomycin, 72 hours; FIGS. 2A and 2B. It counts as cell-based. How it is done: The isolated human T lymphocytes (1×10^5 cells/well) were stimulated with anti-OKT 3/anti-CD28 antibodies or PMA/ionomycin (P/I) in the presence or absence of DMY for 72 hours.
5-bromo-2′-deoxy-uridine (BrdU, Roche) was added to the cells at the 14th hour before the end of stimulation and it could be incorporated into the DNA of the growing cells during the labeling period. The amount of BrdU incorporated into DNA was quantified as an indicator of cell proliferation. BrdU was determined by ELISA according to manufacturer's instructions.

Series [4] relates to NF-κB-Luciferase reporter in Jurkat T cells. As to the kind of experiment: NF-κB reporter assay (luciferase). As to conditions: 20 ng/ml PMA plus 1 μM ionomycin, 6 hours; FIG. 6B. It counts as cell-based. How it is done: The Jurkat T cells are transiently transfected with NF-κB-Luciferase reporter plasmid with lipofectamine LTX (Invitrogen). The transfected cells were treated with 20 ng/ml PMA plus 1 μM ionomycin in the presence or absence of biotin-DMY for 6 hours. The cells were then lysed in Passive Lysis Buffer (Promega) and the transcriptional activity was determined by measuring the activity of firefly luciferase in a microplate luminometer (Perkin Elmer) using Luciferase Reporter Assay (Promega).

Series [5] deals with c-Fos nuclear localization in HeLa cells. As to the kind of experiment: Nuclear localization of c-Fos (immunofluorescence). Type of series: cell-based. The following applies: DMY 2 hours then PMA plus ionomycin 2 hours, FIGS. 7 and 8. On the procedure: HeLa cells (1×10^5) were seeded on the 6-well plates with cover slips and cultured overnight. The cells were treated with DMY for 2 hours at 37° C and then stimulated with or without 20 ng/ml PMA plus 1 μM ionomycin for another 2 hours. After stimulation, the cells were fixed with 4% paraformaldehyde for 15 minutes at room temperature and permeabilized by 0.1% Triton X-100 and then stained with phalloidin (Invitrogen) for 3 minutes. The cells were incubated with c-Fos antibody for 2 hour after being stained with phalloidin, and the cells were then incubated with FITC-linked secondary antibody for 1 hour after being washed with PBS for 3 times. The slides were dried in air and mounted onto the glass slides.

In the next series the test system is ICR mice. The following applies: mouse, in vivo. On the procedure: ICR (Imprinting Control Region) mice (both male and female) were purchased from the Laboratory Animal Services Center, the Chinese University of Hong Kong, Hong Kong. At the beginning of the study, one mouse was given orally with DMY at a dose of 2,000 mg/kg of mouse after fasting for 12 hours. The mouse had free access to water and after 2 hours, it was supplied with chow diet. Signs of toxicosis, onset of signs, and time to death of the mouse were monitored and recorded. Results of the initial exposure were used to select the subsequent dose of DMY, using the up-and-down method to estimate the lethal dose. […] If all the mice stayed alive, a higher dose of DMY was given to another three mice. All the mice were monitored continuously for two hours, every half hour for the next 5 hours, and at least every 10 hours until the 72nd hour of the study. Mice that died were immediately undergone autopsy. Mice remaining alive for 14 days upon study were sacrificed with an overdose pentobarbital.

[6] abbreviates: CIA rats, daily intraperitoneal 50 and 100 mg/kg, day 13 to day 30, vs vehicle-treated, FIGS. 10A and B.

Regarding `O=C1c2c(O)cc(O)cc2O[C@H](c2cc(O)c(O)c(O)c2)[C@H]1O` [DMY, dihydromyricetin], in series [1] (CIA rats, DMY 100 mg/kg, MTX 3.75 mg/kg twice per week), the “ameliorative effect compared with MTX” value is “better than that of MTX”. In addition, in series [1] (setting [6]), the arthritic scores result is given as “significantly reduced” and the hind paw volume entry was “significantly reduced”. Further, the “organ indexes of spleen and/or thymus” value in series [1] (rat, in vivo) was “no adverse effect”. The IKK-α/β phosphorylation result in series [2] is “inhibit IKK-ca/3 phosphorylation”. Moreover, the T cell proliferation result in series [3] was “block T cell proliferation”. For the same molecule, the NF-κB transcriptional activity result in series [4] is on record as “significantly suppressed”. Further, the c-Fos nuclear localization entry in series [5] was “suppress c-Fos nuclear localization”. Moreover, the “acute oral LD50” value in the series with ICR mice is on record as “greater than 5,000 mg/kg body weight”.

Values taken from patent US20120053235A1, “Dihydromyricetin as an IKK-beta inhibitor used for treatment of arthritis, cancer and autoimmune conditions, and other diseases or disorders” (HONG KONG BAPTIST UNIVERSITY, priority 2010, published 2012).
